Reference: patent US20230172874A1, “USE OF CANNABIDIOL FOR THE TREATMENT OF INSOMNIA ASSOCIATED TO PAIN” (priority 2021, published 2023)
Entries after “also recorded” stand apart in the source; their conditions may differ.

Legend:
[1] = system: neuropathic rats; assay: EEG/EMG recording of wakefulness, NREM and REM sleep in neuropathic rats; format: in vivo, male Wistar rats
Protocol: Animals. The experiments were performed on male Wistar rats weighing 250 g (six weeks). All animals were housed in standardized animal facilities under a 12 h light/dark cycle (lights on at 7 AM) with ad libitum access to food and water. All surgeries and experimental procedures were performed during the light cycle. Experimental protocols were approved by the Animal Ethics Committee of the local institutional committee for animal use and care (McGill University, Qc, Canada). These protocols follow ethical guidelines for investigation of experimental pain in conscious animals of the IASP, the Canadian Institute of Health Research guidelines for animal care and scientific use.
Spared nerve injury (SNI). SNI was performed according to the method of Decosterd and Woolf^35. Rats were deeply anaesthetized with isofluorane (5%), anaesthesia was confirmed by the absence of a nociceptive reflex reaction to a paw pinch. The sciatic nerve was exposed at mid-thigh level distal to the trifurcation and freed of connective tissue; the three peripheral branches (sural, common peroneal, and tibial nerves) of the sciatic nerve were exposed without stretching nerve structures. Both tibial and common peroneal nerves were ligated and transected together. Carprofen (5 mg/kg) was administrated subcutaneously pre-surgery as well as three days every 24 hours post-surgery as analgesic. After SNI, each rat was housed in its home cage for 15 days until the neuropathy is developed.
EEG/EMG Implantation. Neuropathic rats (10 days after surgery) and naïve rats were placed in a stereotaxic frame following isoflurane-induced anesthesia (5%). Anaesthesia was confirmed by the absence of a nociceptive reflex reaction to a paw pinch. For EEG monitoring, three stainless-steel epidural electrodes were positioned through 1.5 mm burr holes: one over the parietal cortex on each side, and the third (as a reference) in the right prefrontal cortex. In rats, their respective locations relative to bregma were −2 mm anteroposterior (AP) and −3 mm lateral (L), −7 mm AP and −3 mm L, and −4.5 mm AP and +3 mm L, according to Paxinos and Watson. For EMG monitoring, three flexible stainless-steel wire electrodes, silicon insulation removed at the terminal 3-4 mm, were implanted into the neck muscles (two bilaterally and one in the middle). Wires were fused with the electrodes and the connectors were fixed to the skull with dental acrylic (Coltene/Whaledent). Carprofen (10mg/kg) was administrated subcutaneously pre-surgery as well as three days every 24 hours post-surgically as analgesic. Each rat was single-caged post-surgery and allowed to recover for the next 5 days^13. 24 hours after surgery, the rats were placed in the recording chamber and connected to a flexible 6-flat wire (3M Scotchflex™) in a freely moving manner for several hours during the subsequent 5 days. No recordings were performed, but tolerance to the cable and sleep behavior were observed. All rats from a home cage were also grouped for one hour each day for socialization to circumvent anxious-depressive-like behavior induced by social isolation^13.
Study design for EEG and EMG assessment. […] […] In another cohort of rats rimonabant (1 mg/kg) was also injected i.p. at 6 A.M. in neuropathic rats.
(§1) EEG and EMG recording. Six days after surgery (16 days post-SNI), mechanical allodynia was assessed via von Frey test, and EEG/EMG was recorded for a period of 6 h (from 6 AM to 12 PM). The treatments (described below) were performed at 6:00 A.M., right after the recording had started. […] Consecutive 10 s epochs were subjected to a fast Fourier transform (FFT), and EEG power spectra density was computed in the frequency range of 0-64 Hz^13.
Analysis of EEG and EMG data. The three classical vigilance states as described in the rat were discriminated on the basis of the cortical EEG and neck EMG activities. […]

[2] = system: healthy rats; conditions: intracerebroventricular injection 10 μg/5 μL; cited from earlier work
[3] = system: neuropathic rats; assay: EEG power spectra (delta, theta, sigma bands) during NREM and REM sleep; format: in vivo, male Wistar rats
Protocol: as §1
To determine the variations in power spectra induced by the pharmacological treatment of CBD and antagonists, the power densities were summed up over the frequency band of 0-25 Hz (total power). The data were then standardized by expressing all power spectral densities at the different 0.5 Hz bin frequency ranges (delta, theta, and sigma) as a percentage relative to the total power of the same epoch^16. Frequency ranges were 0-3.5Hz for delta, 4-8.5Hz for theta, and 11-14 Hz for sigma bands. The sum of power densities over a frequency band following treatments were expressed as the percentage difference from that in or naïve+veh or NP+vehicle group in statistical analysis. In the experiments with WAY 100635 the NP+CBD was compared with NP+vehicle, NP+WAY, NP+WAY+CBD.
To assess whether CBD (20 mg/kg) might affect the microarchitecture during the sleep, the intensity Delta (0.5-4 Hz), Theta ([…]) and Sigma (10-15 Hz) waves were measured during 6 hours of light phase in the 3 groups of rats (Naïve, SNI+VEH and SNI+CBD 20mg/kg). Data were converted as a percentage of variation vs. naive animals and One-way ANOVA was performed on the power of delta, theta and sigma waves during NREM and REN sleep.
To assess whether the 5-HT1A selective antagonist WAY 100635 (2 mg/kg) might reverse the effect of CBD (20 mg/kg) in the enhancement of power density (Delta, Theta, and Sigma waves) during sleep, the power spectra were measured for 6 hours in four groups of rats. The first group were NP rats treated with CBD vehicle (n=8), the second group were NP rats treated with WAY 100635 alone at 2 mg/kg (n=6), the third group were NP rats treated with WAY 100635 (2 mg/kg)+CBD (20 mg/kg; n=6), and the fourth group were NP treated with CBD at 20 mg/kg (n=8). Data were converted as a percentage of variation vs NP animals treated with vehicle.

[4] = system: naïve animals; conditions: cited from earlier work
[5] = 6 h EEG/EMG, i.p., CBD 20 mg/kg, WAY 100635 2 mg/kg
[6] = NP rats, 6 h EEG/EMG, i.p., CBD 20 mg/kg, rimonabant 1 mg/kg
[7] = naïve animals, acute systemic 20 mg/kg

With `C=C(C)[C@@H]1CCC(C)=C[C@H]1c1c(O)cc(CCCCC)cc1O` [CBD, 2-[(1R,6R)-3-methyl-6-prop-1-en-2-ylcyclohex-2-en-1-yl]-5-pentylbenzene-1,3-diol] the “total NREM sleep, relative to NP rats treated with vehicle” value [1, 5] was “able to reverse NREM sleep impairments; also recorded: restored NREM sleep”, the “total time of wakefulness, relative to NP rats treated with vehicle” value [1, 5] was “decrease in the amount of time spent in wakefulness; also recorded: decreased wakefulness” and the “REM sleep (total time), relative to NP rats treated with vehicle” value ([1]; 6 h EEG/EMG, i.p., CBD 20 mg/kg, WAY 100635 2 mg/kg, rimonabant 1 mg/kg) was “restored the normal REM sleep”. For the same molecule, the “NREM sleep, relative to naïve animals treated with vehicle” value ([1]; NP rats, 6 h EEG/EMG, CBD 20 mg/kg i.p.) was “no difference was detected”, the “REM sleep, relative to naïve animals treated with vehicle” value [1, 6] was “no difference was detected” and the “wakefulness, relative to naïve animals treated with vehicle” value [1, 6] was “no difference was detected”. For the same molecule, the “reversal of sleep perturbations induced by neuropathic pain (sleep-wake cycle)” value ([1]; NP rats, i.p., CBD 20 mg/kg, rimonabant 1 mg/kg) was “Reverses the Sleep Perturbations; also recorded: restored the normal sleep-wake cycle; also recorded: restores the impaired sleep in a dose-dependent manner”, the REM sleep [2] was “decrease in REM sleep” and the wakefulness [2] was “increase in wakefulness”. For the same molecule, the “power of Sigma waves during REM sleep, relative to NP rats treated with vehicle” value ([3]; 6 h, CBD 20 mg/kg) was “no statistically significant differences between groups; also recorded: no differences were found”, the “power of Theta waves during REM sleep, relative to NP animals treated with vehicle” value ([3]; 6 h, CBD 20 mg/kg) was “no statistically significant differences between groups” and the “power of theta waves during NREM sleep, relative to NP animals treated with vehicle” value ([3]; 6 h, CBD 20 mg/kg i.p.) was “increases the intensity of the Theta waves; also recorded: increase in the theta power”. For the same molecule, the “Sigma waves during NREM sleep, relative to NP rats treated with vehicle” value ([3]; 6 h, CBD 20 mg/kg, WAY 100635 2 mg/kg) was “no significant main effects; also recorded: did not detect differences”, the “power of Delta waves during NREM sleep, relative to NP rats treated with vehicle” value ([3]; 6 h light phase, CBD 20 mg/kg i.p.) was “increase in the intensity of the power of Delta waves” and the “power of Delta waves during REM sleep, between groups (ANOVA)” value ([3]; NP rats, 6 h, CBD 20 mg/kg, WAY 100635 2 mg/kg) was “no statistically significant differences between groups”. The “sleep duration and sleep parameters” value [4, 7] was “no significant effect”, the “slow-wave sleep (SWS) latency” value [4, 7] was “reduced slow-wave sleep (SWS) latency” and the REM sleep ([4]; single doses of 40 mg/kg) was “without affecting REM sleep”. For the same molecule, the SWS ([4]; single doses of 40 mg/kg) was “increased SWS” and the SWS latency ([4]; single doses of 40 mg/kg) was “decreased SWS latency”.
